O=C[C@H](O)[C@H](O)[C@H](O)CO
solubility (mole fraction)
Conditions | 283.15 K | 288.15 K | 293.15 K | 298.15 K | 303.15 K | 313.15 K | 323.15 K
in acetone | 0.00234 | – | 0.00302 | – | 0.00509 | 0.0077 | 0.0118
in acetonitrile | 0.00109 | – | 0.00144 | – | 0.0022 | 0.00357 | 0.00626
in dichloromethane | 0.000102 | 0.000257 | 0.000367 | 0.000402 | 0.000529 | – | –
in ethanol | 0.00798 | – | 0.0121 | – | 0.0213 | 0.0394 | 0.0675
in ethyl acetate | 0.000876 | – | 0.00107 | – | 0.00162 | 0.00257 | 0.0036
in isobutanol | 0.00334 | – | 0.00421 | – | 0.0063 | 0.0102 | 0.0156
in isopropanol | 0.00457 | – | 0.00703 | – | 0.0117 | 0.021 | 0.0426
in methanol | 0.0313 | 0.0457 | 0.0587 | 0.0771 | 0.108 | – | –
in n-butanol | 0.00388 | – | 0.00485 | – | 0.00814 | 0.0124 | 0.0201
in n-hexane | 3.77e-05 | – | 7.32e-05 | – | 0.000101 | 0.000174 | 0.000205
in n-propanol | 0.00515 | – | 0.00691 | – | 0.0112 | 0.0179 | 0.0305
in sec-butanol | 0.00484 | – | 0.00567 | – | 0.00894 | 0.0152 | 0.0242

Source: BigSolDB 2.1
